Assay results from PMC9331678 (Molecules, 2022).

Assays:
[1] = 24 h therapeutic monitoring and noncompartmental pharmacokinetics in chronic lymphocytic leukemia patients receiving IBR; conditions: plasma; for concentration at 24 h: 24 h postdose; for k el / half-life / MRT last / MRT / Cmax / Tmax / AUCPEO AUC %Extrapolation Obs / AUCPEP AUC %Extrapolation Pred / AUMCIFO AUMC Infinity Obs / AUMCIFP AUMC Infinity Pred / AUMCLST AUMC to Last Nonzero Conc / AUMCPEO AUMC %Extrapolation Obs / AUMCPEP AUMC % Extrapolation Pred / TMAX Time of CMAX: steady state
Method: In order to provide a proof of concept, IBR and DIB were assayed in the plasma samples of three patients treated with IBR. […] The criteria for inclusion were (1) age of ≥18 years, (2) treatment ongoing with IBR for more than 10 days, and (3) no concurrent administration of medications undergoing CYP3A4 metabolism. The subjects gave their written informed consent. Each participant took either two or three 140 mg Imbruvica capsules, as per the therapeutic provision, in the presence of the recruiting clinician.
Blood samples were centrifuged at 3000 rpm for 10 min in a Hettich Universal 320R centrifuge (Auro-Science, Budapest, Hungary) at 10 °C. Plasma was separated and frozen at −70 °C until analysis was done within 2 weeks.

[2] = 6 h benchtop (early preanalytical) stability in whole blood and in plasma; format: in vitro ADME, human
Method: Six independent plasma samples were processed. The reference solutions were 140 µL acetonitrile-water 4:1 (v/v) mixtures spiked as described above. The mixtures and the reference solutions were subsequently diluted with 90 µL water. Internal standard-corrected matrix factors were calculated as the peak area ratios of the analytes and the internal standards in prepared plasma versus those in a neat solution. In the stability studies, the recoveries of IBR and DIB were calculated as the ratio of the concentrations measured after incubation and those measured at the beginning of the study.
The preanalytical stability of IBR and DIB was evaluated by adding 20 µL methanol solutions containing 500 ng/mL IBR and DIB to two 1.0 mL aliquots of blood freshly drawn into phlebotomy tubes containing K3-EDTA. Three samples, 3 mL each, were taken from three healthy volunteers (manuscript authors G.B.K., I.V. and Z.K.). One of the fractions was centrifuged at 3000 rpm and 10 °C for 10 min immediately after spiking the analytes, and plasma was separated. Both spiked whole blood and the separated plasma were kept at ambient temperature for 6 h. […] Fifty microliters was drawn from the supernatant of the whole blood sample as well as from the plasma, and was processed as described in Section 2.2.

[3] = human, oral, 420 mg, Patient 1, 420 mg IBR per day
[4] = human, oral, 420 mg, Patient 2, 420 mg IBR per day

## Nc1ncnc2c1c(-c1ccc(Oc3ccccc3)cc1)nn2[C@@H]1CCCN(C(=O)C(O)CO)C1 (stereo partly drawn) [Dihydrodiol Ibrutinib, 1-[(3R)-3-[4-amino-3-(4-phenoxyphenyl)pyrazolo[3,4-d]pyrimidin-1-yl]piperidin-1-yl]-2,3-dihydroxypropan-1-one]
[1]; human, oral, 420 mg, Conc., subj=1 (420 mg IBR per day)
  concentration at 24 h: 34.6 nM
[1]; human, oral, 420 mg, Conc., subj=2 (420 mg IBR per day), 0.5 h postdose
  concentration at 0.5 h: 71.5 nM
[1]; human, oral, 420 mg, Conc., subj=2 (420 mg IBR per day), 1 h postdose
  concentration at 1 h: 254 nM
[1]; human, oral, 420 mg, Conc., subj=2 (420 mg IBR per day), 2 h postdose
  concentration at 2 h: 227 nM
[1]; human, oral, 420 mg, LAMZ Lambda z, subj=1 (420 mg IBR per day)
  k el: 1.9e-05 s⁻¹
[1]; human, oral, 420 mg, LAMZ Lambda z, subj=2 (420 mg IBR per day)
  k el: 3.6e-05 s⁻¹
[1]; human, oral, 420 mg, LAMZHL Half-Life Lambda z, subj=1 (420 mg IBR per day)
  half-life: 10.1 h
[1]; human, oral, 420 mg, LAMZHL Half-Life Lambda z, subj=2 (420 mg IBR per day)
  half-life: 5.35 h
[1]; human, oral, 420 mg, MRT0–24, Patient 1, 420 mg IBR per day
  MRT last: 7.07 h
[1]; human, oral, 420 mg, MRT0–24, Patient 2, 420 mg IBR per day
  MRT last: 4.6 h
[1]; human, oral, 420 mg, MRTEVIFO MRT Extravasc Infinity Obs, subj=1 (420 mg IBR per day)
  MRT: 12.7 h
[1]; human, oral, 420 mg, MRTEVIFO MRT Extravasc Infinity Obs, subj=2 (420 mg IBR per day)
  MRT: 5.65 h
[1]; human, oral, 420 mg, MRTEVIFP MRT Extravasc Infinity Pred, subj=1 (420 mg IBR per day)
  MRT: 12.9 h
[1]; human, oral, 420 mg, MRTEVIFP MRT Extravasc Infinity Pred, subj=2 (420 mg IBR per day)
  MRT: 5.63 h
[1]; human, oral, 420 mg, MRTEVLST MRT Extravasc to Last Nonzero Conc, subj=1 (420 mg IBR per day)
  MRT: 7.07 h
[1]; human, oral, 420 mg, MRTEVLST MRT Extravasc to Last Nonzero Conc, subj=2 (420 mg IBR per day)
  MRT: 4.6 h
[1]; [3]
  Cmax: 185 nM
  Tmax: 2 h
[1]; [4]
  Cmax: 254 nM
  Tmax: 1 h
[1]; human, oral, 420 mg, ke, Patient 1, 420 mg IBR per day
  k el: 1.92e-05 s⁻¹
[1]; human, oral, 420 mg, ke, Patient 2, 420 mg IBR per day
  k el: 3.61e-05 s⁻¹
[1]; human, oral, 420 mg, t1/2, Patient 1, 420 mg IBR per day
  half-life: 10.1 h
[1]; human, oral, 420 mg, t1/2, Patient 2, 420 mg IBR per day
  half-life: 5.35 h
[1]; human, oral, 420 mg/day, Conc., subj=2 (420 mg IBR per day), 4 h postdose
  concentration at 4 h: 172 nM
[1]; human, oral, 420 mg/day, Conc., subj=2 (420 mg IBR per day), 23 h postdose
  concentration at 23 h: 14.6 nM
[1]; human, oral, 420 mg/day, Conc., subj=2 (420 mg IBR per day)
  concentration at 24 h: 13.2 nM
[1]; subj=1 (420 mg IBR per day)
  AUCPEO AUC %Extrapolation Obs: 17.7444%
  AUCPEP AUC %Extrapolation Pred: 18.5268%
  AUMCIFO AUMC Infinity Obs: 36155.1204 h2*nmol/L
  AUMCIFP AUMC Infinity Pred: 37213.6967 h2*nmol/L
  AUMCLST AUMC to Last Nonzero Conc: 16593.9650 h2*nmol/L
  AUMCPEO AUMC %Extrapolation Obs: 54.1034%
  AUMCPEP AUMC % Extrapolation Pred: 55.4090%
  TMAX Time of CMAX: 2.0000 h
[1]; subj=2 (420 mg IBR per day)
  AUCPEO AUC %Extrapolation Obs: 3.8711%
  AUCPEP AUC %Extrapolation Pred: 3.8177%
  AUMCIFO AUMC Infinity Obs: 14854.1469 h2*nmol/L
  AUMCIFP AUMC Infinity Pred: 14807.8422 h2*nmol/L
  AUMCLST AUMC to Last Nonzero Conc: 11625.7539 h2*nmol/L
  AUMCPEO AUMC %Extrapolation Obs: 21.7340%
  AUMCPEP AUMC % Extrapolation Pred: 21.4892%
  TMAX Time of CMAX: 1.0000 h
[1]; subj=3 (280 mg IBR per day)
  AUCPEO AUC %Extrapolation Obs: 4.3920%
  AUCPEP AUC %Extrapolation Pred: 4.2856%
  AUMCIFO AUMC Infinity Obs: 10834.3795 h2*nmol/L
  AUMCIFP AUMC Infinity Pred: 10766.9678 h2*nmol/L
  AUMCLST AUMC to Last Nonzero Conc: 8171.9228 h2*nmol/L
  AUMCPEO AUMC %Extrapolation Obs: 24.5741%
  AUMCPEP AUMC % Extrapolation Pred: 24.1019%
  TMAX Time of CMAX: 2.0000 h
[1]; three chronic lymphocyte leukemia patients
  time after drug intake at which maximum concentrations were attained: ≤ 2 h
[2]; human, plasma (separated from spiked K3-EDTA whole blood), plasma, ambient temperature (25 °C), up to 6 h, all analyses
  recovery at 9.8 ng/mL: ≥ 85%
[2]; whole blood and plasma kept at ambient temperature for 6 h
  stability: acceptable for clinical use
[2]; whole blood, ambient temperature (25 °C), up to 6 h
  cases with recoveries lower than 85% (of fifteen analyses): one
